Source: PubChem BioAssay AID248 (DTP/NCI, 2004)
Where “and” joins values, the source holds several entries; their conditions need not be identical. Identical values can stand only once. Toxic doses and inconclusive results are not listed.

System: L1210 leukemia ip in BDF1 mice, survival T/C
Test: NCI In Vivo Anticancer Drug Screen. Data for tumor model L1210 Leukemia (intraperitoneal) in B6D2F1 (BDF1) mice
Conditions: endpoint: mean survival time, higher = longer survival
In short: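 Read-out is survival time, reported as the treated-group measurement over the vehicle-control measurement.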

[1] = dose: 100.0 mg/kg/injection, schedule: Q01DX001 (ip), vehicle: saline
[2] = dose: 200.0 mg/kg/injection, schedule: Q01DX001 (ip), vehicle: saline
[3] = dose: 400.0 mg/kg/injection, schedule: Q01DX001 (ip), vehicle: saline
[4] = dose: 100.0 mg/kg/injection, schedule: Q01DX009 (ip), vehicle: Klucel (hydroxypropylcellulose) (HPC)
[5] = dose: 100.0 mg/kg/injection, schedule: Q04DX003 (ip), vehicle: Klucel (hydroxypropylcellulose) (HPC)
[6] = dose: 200.0 mg/kg/injection, schedule: Q01DX009 (ip), vehicle: Klucel (hydroxypropylcellulose) (HPC)
[7] = dose: 200.0 mg/kg/injection, schedule: Q04DX003 (ip), vehicle: Klucel (hydroxypropylcellulose) (HPC)
[8] = dose: 400.0 mg/kg/injection, schedule: Q01DX009 (ip), vehicle: Klucel (hydroxypropylcellulose) (HPC)
[9] = dose: 400.0 mg/kg/injection, schedule: Q04DX003 (ip), vehicle: Klucel (hydroxypropylcellulose) (HPC)
[10] = dose: 100.0 mg/kg/injection, schedule: Q04DX003 (ip), vehicle: saline
[11] = dose: 200.0 mg/kg/injection, schedule: Q04DX003 (ip), vehicle: saline
[12] = dose: 400.0 mg/kg/injection, schedule: Q04DX003 (ip), vehicle: saline

Compound: N#CC(c1ccc(Br)cc1)C1c2ccccc2-c2ccccc21 (centres undefined)
- T/C (dose: 50.0 mg/kg/injection, schedule: Q01DX001 (ip), vehicle: Klucel (hydroxypropylcellulose) (HPC)): 93 % of control
- T/C (dose: 100.0 mg/kg/injection, schedule: Q01DX001 (ip), vehicle: Klucel (hydroxypropylcellulose) (HPC)): 91 % of control
- T/C (dose: 200.0 mg/kg/injection, schedule: Q01DX001 (ip), vehicle: Klucel (hydroxypropylcellulose) (HPC)): 86 % of control

Compound: CC1=C(Sc2ccccc2)c2ccccc2C1
- T/C [1]: 86 % of control
- T/C [2]: 91 % of control
- T/C [3]: 91 % of control

Compound: CCn1cc(C(=O)O)c(=O)c2cccc(Cl)c21
- T/C (dose: 25.0 mg/kg/injection, schedule: Q04DX002 (ip), vehicle: saline): 100 % of control
- T/C (dose: 50.0 mg/kg/injection, schedule: Q04DX002 (ip), vehicle: saline): 107 % of control
- T/C (dose: 100.0 mg/kg/injection, schedule: Q04DX002 (ip), vehicle: saline): 107 % of control
- T/C (dose: 200.0 mg/kg/injection, schedule: Q04DX002 (ip), vehicle: saline): 99 % of control
- T/C (dose: 400.0 mg/kg/injection, schedule: Q04DX002 (ip), vehicle: saline): 118 % of control

Compound: O=C(O)C1C(c2ccccc2)=C1c1ccc(Br)cc1 (centres undefined)
- T/C [4]: 100 % of control
- T/C [5]: 93 % of control
- T/C [6]: 118 % of control
- T/C [7]: 102 % of control
- T/C [8]: 101 % of control
- T/C [9]: 88 % of control

Compound: c1ccc2c(c1)ccc1c3c([nH]c12)CCCC3
- T/C (dose: 100.0 mg/kg/injection, schedule: Q01DX001 (ip), vehicle: carboxymethylcellulose (CMC)): 88 % of control
- T/C (dose: 200.0 mg/kg/injection, schedule: Q01DX001 (ip), vehicle: carboxymethylcellulose (CMC)): 98 % of control
- T/C (dose: 400.0 mg/kg/injection, schedule: Q01DX001 (ip), vehicle: carboxymethylcellulose (CMC)): 88 % of control

Compound: O=C(NCCCCCCCCCCNC(=O)N1CC1)N1CC1
- T/C (dose: 0.12 mg/kg/injection, schedule: Q01DX Z (ip), vehicle: carboxymethylcellulose (CMC)): 94 % of control
- T/C (dose: 0.25 mg/kg/injection, schedule: Q01DX Z (ip), vehicle: carboxymethylcellulose (CMC)): 96 % of control
- T/C (dose: 0.4 mg/kg/injection, schedule: Q01DX Z (ip), vehicle: carboxymethylcellulose (CMC)): 115 % of control
- T/C (dose: 0.5 mg/kg/injection, schedule: Q01DX Z (ip), vehicle: carboxymethylcellulose (CMC)): 108 % of control
- T/C (dose: 0.5 mg/kg/injection, schedule: Q01DX Z (ip), vehicle: saline): 110 % of control
- T/C (dose: 0.8 mg/kg/injection, schedule: Q01DX Z (ip), vehicle: carboxymethylcellulose (CMC)): 123 % of control
- T/C (dose: 0.8 mg/kg/injection, schedule: Q01DX Z (ip), vehicle: saline): 113 % of control
- T/C (dose: 1.0 mg/kg/injection, schedule: Q01DX Z (ip), vehicle: carboxymethylcellulose (CMC)): 118 % of control
- T/C (dose: 1.2 mg/kg/injection, schedule: Q01DX Z (ip), vehicle: saline): 124 % of control
- T/C (dose: 1.8 mg/kg/injection, schedule: Q01DX Z (ip), vehicle: carboxymethylcellulose (CMC)): 155 % of control
- T/C (dose: 1.8 mg/kg/injection, schedule: Q01DX Z (ip), vehicle: saline): 118 % of control
- T/C (dose: 2.6 mg/kg/injection, schedule: Q01DX Z (ip), vehicle: carboxymethylcellulose (CMC)): 155 % of control and 160 % of control
- T/C (dose: 2.7 mg/kg/injection, schedule: Q01DX Z (ip), vehicle: saline): 168 % of control
- T/C (dose: 4.0 mg/kg/injection, schedule: Q01DX Z (ip), vehicle: carboxymethylcellulose (CMC)): 119 % of control
- T/C (dose: 5.0 mg/kg/injection, schedule: Q01DX001 (ip), vehicle: saline): 119 % of control
- T/C (dose: 6.0 mg/kg/injection, schedule: Q01DX Z (ip), vehicle: carboxymethylcellulose (CMC)): 96 % of control
- T/C (dose: 6.0 mg/kg/injection, schedule: Q01DX Z (ip), vehicle: saline): 112 % of control

Compound: O=C(/C=C/C(=O)c1ccc(Cl)cc1)c1ccc(Cl)cc1
- T/C (dose: 100.0 mg/kg/injection, schedule: Q01DX009 (ip), vehicle: gum acacia): 95 % of control
- T/C (dose: 100.0 mg/kg/injection, schedule: Q04DX003 (ip), vehicle: gum acacia): 97 % of control
- T/C (dose: 200.0 mg/kg/injection, schedule: Q01DX009 (ip), vehicle: gum acacia): 95 % of control
- T/C (dose: 200.0 mg/kg/injection, schedule: Q04DX003 (ip), vehicle: gum acacia): 95 % of control
- T/C (dose: 400.0 mg/kg/injection, schedule: Q01DX009 (ip), vehicle: gum acacia): 101 % of control
- T/C (dose: 400.0 mg/kg/injection, schedule: Q04DX003 (ip), vehicle: gum acacia): 95 % of control

Compound: CN(C)P(Cl)(Cc1ccccc1)(c1ccccc1)c1ccccc1
- T/C (dose: 3.12 mg/kg/injection, schedule: Q01DX009 (ip), vehicle: saline): 106 % of control
- T/C (dose: 6.25 mg/kg/injection, schedule: Q01DX009 (ip), vehicle: saline): 105 % of control
- T/C (dose: 12.5 mg/kg/injection, schedule: Q04DX003 (ip), vehicle: saline): 106 % of control

Compound: COc1cc2c(cc1OC)CC(=O)NC2
- T/C [10]: 95 % of control
- T/C [11]: 97 % of control
- T/C [12]: 97 % of control

Compound: CCOC(=O)C1=C2c3ccc4ccccc4c3CCC2(C)C(=O)C1 (centres undefined)
- T/C (dose: 75.0 mg/kg/injection, schedule: Q01DX001 (sc), vehicle: steriod suspending solution): 98 % of control
- T/C (dose: 75.0 mg/kg/injection, schedule: Q01DX009 (sc), vehicle: steriod suspending solution): 106 % of control
- T/C (dose: 150.0 mg/kg/injection, schedule: Q01DX001 (sc), vehicle: steriod suspending solution): 103 % of control
- T/C (dose: 150.0 mg/kg/injection, schedule: Q01DX009 (sc), vehicle: steriod suspending solution): 101 % of control
- T/C (dose: 300.0 mg/kg/injection, schedule: Q01DX001 (sc), vehicle: steriod suspending solution): 93 % of control
- T/C (dose: 300.0 mg/kg/injection, schedule: Q01DX009 (sc), vehicle: steriod suspending solution): 105 % of control

Compound: Cc1ccc(C(=O)CN(Cc2ccccc2)Cc2ccccc2)cc1
- T/C [4]: 103 % of control
- T/C [5]: 98 % of control
- T/C [6]: 97 % of control
- T/C [7]: 92 % of control
- T/C [8]: 92 % of control
- T/C [9]: 91 % of control

Compound: CCOC(=O)Nc1cc(Cl)c(N)c(NC(=O)OCC)n1
- T/C (dose: 100.0 mg/kg/injection, schedule: Q01DX009 (ip), vehicle: saline with Tween-80): 94 % of control
- T/C (dose: 100.0 mg/kg/injection, schedule: Q04DX003 (ip), vehicle: saline with Tween-80): 98 % of control
- T/C (dose: 200.0 mg/kg/injection, schedule: Q01DX009 (ip), vehicle: saline with Tween-80): 100 % of control
- T/C (dose: 200.0 mg/kg/injection, schedule: Q04DX003 (ip), vehicle: saline with Tween-80): 93 % of control
- T/C (dose: 400.0 mg/kg/injection, schedule: Q01DX009 (ip), vehicle: saline with Tween-80): 97 % of control
- T/C (dose: 400.0 mg/kg/injection, schedule: Q04DX003 (ip), vehicle: saline with Tween-80): 100 % of control

Compound: COc1cccc(/C=C/[N+](=O)[O-])c1
- T/C (dose: 12.5 mg/kg/injection, schedule: Q01DX009 (ip), vehicle: Klucel (hydroxypropylcellulose) (HPC)): 95 % of control
- T/C (dose: 25.0 mg/kg/injection, schedule: Q01DX009 (ip), vehicle: Klucel (hydroxypropylcellulose) (HPC)): 98 % of control
- T/C (dose: 25.0 mg/kg/injection, schedule: Q04DX003 (ip), vehicle: Klucel (hydroxypropylcellulose) (HPC)): 89 % of control
- T/C (dose: 45.0 mg/kg/injection, schedule: Q04DX003 (ip), vehicle: saline with Tween-80): 103 % of control
- T/C (dose: 50.0 mg/kg/injection, schedule: Q01DX009 (ip), vehicle: Klucel (hydroxypropylcellulose) (HPC)): 97 % of control
- T/C (dose: 50.0 mg/kg/injection, schedule: Q04DX003 (ip), vehicle: Klucel (hydroxypropylcellulose) (HPC)): 96 % of control
- T/C (dose: 90.0 mg/kg/injection, schedule: Q04DX003 (ip), vehicle: saline with Tween-80): 106 % of control
- T/C (dose: 180.0 mg/kg/injection, schedule: Q04DX003 (ip), vehicle: saline with Tween-80): 90 % of control

Compound: O=c1cc(CSCC(O)CO)[nH]c(=O)[nH]1 (centres undefined)
- T/C [10]: 98 % of control
- T/C [11]: 98 % of control
- T/C [12]: 96 % of control

Compound: N#CCc1cc(Cl)ccc1OCC(=O)O
- T/C (dose: 100.0 mg/kg/injection, schedule: Q04DX002 (ip), vehicle: Klucel (hydroxypropylcellulose) (HPC)): 95 % of control
- T/C (dose: 200.0 mg/kg/injection, schedule: Q04DX002 (ip), vehicle: Klucel (hydroxypropylcellulose) (HPC)): 103 % of control
- T/C (dose: 400.0 mg/kg/injection, schedule: Q04DX002 (ip), vehicle: Klucel (hydroxypropylcellulose) (HPC)): 100 % of control

Compound: CC1(C)N=C(N)N=C(N)N1c1ccc(CCNS(=O)(=O)c2cccc(S(=O)(=O)F)c2)cc1
- T/C [1]: 96 % of control
- T/C [2]: 94 % of control
- T/C [3]: 96 % of control
